Data set [1] deals with mortality induced by histamine. Put plainly: Effect on the mortality induced by histamine. The format is in vivo, male albino guinea pigs (Dunkin-Hartley). The settings on record: Cavia porcellus, po, 1 h; p.o., 60 min before 1.25 mg/kg i.v. histamine dihydrochloride; guinea pig; read-out: Mortality induced by hystamine ED50 p.o. Here is the method:
The method described by Romer D. et al. (Med. Welt. 17,791, 1966) was followed and the tests were carried out on male albino guinea pigs (Dunkin-Hartley), weighing 350 to 450 g which were kept in cages with a grid floor, on an empty stomach for 24 hours with water ad libitum. The compounds under examination have been orally administered to the animals, dissolved in 0.5% carboxymethylcellulose, 60 minutes before intravenous administration of 1.25 mg/kg of histamine dihydrochloride in saline solution. In the control animals, treated with carboxymethylcellulose, the intravenous administration of histamine dihydrochloride induced a 100% mortality.
It has been evaluated ED50, which corresponds to the amount of the compound able to inhibit to 50% the mortality induced by histamine: estimation of ED50 has been made applying the `probit` method (Finney D. J. "Statistical method in biological assay", pg 512,1957).

Data set [2] has as its system mortality induced by compound 48/80. Kind of data set: Mortality inhibition by compound 48/80. The note with it: ip, half an hour before 2 mg/kg i.v. compound 48/80; rat; 4 hours observation. It is filed as in vivo, Sprague Dawley Nos male rats. The method, then: For evaluating the protection to the mortality induced by compound 48/80 administration the method described by C. J. E. Niemegeers et al. (Arch. Int. Pharmacodyn, 234,164,1978) was followed.
Sprague Dawley Nos male rats (Nossan, Correzzana, Milano) weighing 140 to 150 g, divided into groups of 10 animals each, on an empty stomach for 24 hours with water "ad libitum", were kept in cages with a grid floor, and treated intravenously with 2 mg/kg of compound 48/80 (1 ml/rat).
The animals were kept under observation for 4 hours taking note of their mortality. The results were expressed as the number of animals dead with respect to the number of treated animals. Compounds under examination or the carrier were administered half an hour before administration of compound 48/80 by intraperitoneal route, dissolved in H2 O (5 ml/kg). The experimental data were submitted to the variance analysis and to subsequent multiple comparisons according to Dunnet (D. J. Finney, in "Statistical Methods in Biological assay", Ed. L. Griffin and Co. Ltd., pag. 152,1957, Edition Ames Iowa, 1971).

Data set [3] is described as follows: Evaluation of the lethal dose50 (LD50), acute toxicity. The settings on record: in vivo, ip; mouse; 14 days observation. Here is the method:
Swiss Nos (Nossan, Correzzana, Milano) mice, weighing 18 to 20 g each, on an empty stomach for 18 hours with water "ad libitum" and kept in cages with grid floor, were used. The animals, divided into groups of 10 animals each, (5M+5F) were treated intraperitoneally (10 ml/kg) with the compounds under examination dissolved in water or suspended in 0.5% carboxymethylcellulose. The animals were kept in the cages and the mortality occurred within the following 6 hours was noted down. At the expiring of the 6 hours the animals were allowed to eat up to the end of the experimentation which lasted 14 days. During this period all the toxic symptoms and the mortality occuring were noted.
The animals which died during the test period and those which were sacrificed at the end of the same, underwent autopsy for a macroscopic examination of their main organs. The experimental data were statistically compared with the X^2 method and LD50 was extrapolated by the `probit` method.

The source of these data is patent US5011838A, “Pharmacologically active 2-substituted 3-(2-ethoxyethyl) imidazo[4,5-b]pyridines and pharmaceutical compositions containing them” (Dompe Farmaceutici S.p.A., priority 1989, dated 1991).

A value given as a limit tells only on which side of the number the result lay.

For `CCOCCn1c(CCCN(C)C)nc2cccnc21` [Example 1, 3-(2-Ethoxyethyl)-2-(3-dimethylaminopropyl)-3H-imidazo [4,5-b] pyridine], the ED50 came out at 0.03 mg/kg in data set [1] and 0.5 mg/kg in data set [2]. In data set [3], this compound came in with an LD50 at 336 h above 100 mg/kg.
Turning to `CCOCCn1c(CCN(C)C)nc2cccnc21` [Example 2, 3-(2-Ethoxyethyl)-2-(2-dimethylaminoethyl)-3 H-imidazo [4,5-b] pyridine], the ED50 was determined as 0.025 mg/kg in data set [1] and 0.3 mg/kg in data set [2]. The LD50 at 336 h in data set [3] is above 100 mg/kg.
On to `CC(C)(C)c1ccc(C(O)CCCN2CCC(C(O)(c3ccccc3)c3ccccc3)CC2)cc1` (stereo not drawn) [Terfenadine, reference compound], for which the ED50 in data set [1] stood at 0.436 mg/kg; in data set [2], 1.09 mg/kg. In data set [3], the LD50 at 336 h came to 620 mg/kg.
For `CCOCCn1c(CCCN2CCOCC2)nc2cccnc21.O=C(O)/C=C/C(=O)O.O=C(O)/C=C/C(=O)O` [Example 9, 3-(2-Ethoxyethyl)-2-[3-(morpholin-4-yl)propyl]-3H-imidazo [4,5-b] pyridine difumarate] the same measures were 0.003 mg/kg, 0.5 mg/kg and above 100 mg/kg.
